Data on 70 molecules can be found in PubChem BioAssay AID179 (DTP/NCI, 2004).

In general, EC50 refers to the concentration at which the effect is half-maximal. By IC50 is commonly meant the concentration that gives 50% inhibition. A lower IC50 goes with inhibition by little substance.

For the assay, the system named is CEM cells HIV-1 protection, formazan growth assay. Briefly: NCI AIDS Antiviral Assay. To be noted: for IC50: measured here: growth of uninfected CEM cells. An outline of the steps:
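Steps: treat uninfected and HIV-1-infected human CEM cells at five drug levels; quantify growth by soluble formazan; retest any compound reaching 50% protection; classify actives from the retest.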

The structures appear in SMILES notation. The source made the active and inactive calls.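 The calls were made as follows: active = compounds giving half or more protection of infected cells from virus-caused growth loss, again on retest; inactive = the rest.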

Take `CC1(C)OC(=O)C(=Cc2ccccc2F)C(=O)O1`: the EC50 was greater than 380 µM and the IC50 was 70.8 µM.

Regarding `Cc1nccnc1N1CCCCC1`, the EC50 was greater than 200 µM and the IC50 was greater than 200 µM.

In the case of `CCC[CH2][Sn]1([CH2]CCC)[O]CC(CN2CCCCC2)[O]1` (configuration not stated), the EC50 was greater than 9.33 µM and the IC50 came out at 0.0646 µM.

Consider `CCCCCCCCCCCc1c(O)c(O)cc2nc3ccc(Sc4ccccc4)cc3nc12`, for which the EC50 is greater than 15.1 µM and the IC50 stood at 4.57 µM.

For the molecule `COC(=O)C1=NC(=N)N=C(C(=O)OC)C12C(=O)Cc1ccccc12` (configuration not stated), the EC50 was 339 µM and the IC50 was determined as 398 µM.

For the molecule `CCOC(=O)N1CCN(c2c(C)nc(C)[nH]c2=O)CC1`, the EC50 was greater than 200 µM and the IC50 is greater than 200 µM.

Regarding `CCOC(=O)N1CCc2cc(OC)c(OC)c3c2c1cc1cc(OC)c(OC)cc13`, the outcome was inactive.

With `CCn1c(O)c(C=Nc2ccccc2)s/c1=N/Nc1ncc(CC(=O)Nc2ccccc2C)s1`, the EC50 was greater than 200 µM and the IC50 was 170 µM.

In the case of `C1=CC(=NN=P(c2ccccc2)(c2ccccc2)c2ccccc2)C=C1`, the outcome was inactive.

Take `CNc1ccc(Cl)cc1S(=O)(=O)c1ccccc1`: the EC50 was 6.03 µM and the IC50 is greater than 200 µM.

Consider `C=CCc1cccc2cc(C(=O)Nc3nc(C45CC6CC(CC(C6)C4)C5)cs3)c(=O)oc12`, for which the EC50 is greater than 100 µM and the IC50 was greater than 100 µM.

On to `Brc1ccc2[nH]c3nc(N/N=C/c4cccnc4)nnc3c2c1`, for which the EC50 was greater than 200 µM and the IC50 is greater than 200 µM.

For the molecule `C1=C(c2ccccc2)N2CCCNC2(c2ccccc2)CS1` (configuration not stated), the EC50 was greater than 200 µM and the IC50 was found to be 132 µM.

For `O=C1c2ccncc2C(=O)c2c(O)ccc(O)c21`, the EC50 was greater than 6.03 µM and the IC50 is 3.24 µM.

In the case of `O=C(CCNNC(=O)c1ccncc1)NCc1ccccc1`, the EC50 is greater than 200 µM and the IC50 was greater than 200 µM.

Turning to `COC(=O)Cc1cc(=O)[nH]c2c1C(=O)CCC2`, the result was inactive.

Consider `S=C(Nc1cccc(-c2ccccc2)c1)Nc1ccc(Br)cn1`, for which the EC50 is greater than 200 µM and the IC50 is 1.17 µM.

In the case of `CCOC(=O)/C=C\c1c(Cl)n(-c2ccccc2)c(=O)n(-c2ccccc2)c1=O`, the EC50 was greater than 200 µM and the IC50 was determined as 31.6 µM.

Take `O=C(OCCN=C1c2ccccc2CCc2ccccc21)c1cc([N+](=O)[O-])cc([N+](=O)[O-])c1`: the EC50 is greater than 200 µM and the IC50 came out at 70.8 µM.

Consider `CN(NC(=O)CCCl)C1=NCCCCN1`, for which the EC50 was greater than 200 µM and the IC50 is greater than 200 µM.

Take `COC(=O)[C@H]1C2CC[C@@H]3C45C[C@@H](c6ccoc6)O[C@@H]4O[C@@H](O2)C31CCC5C` (some centres not stated): the EC50 was greater than 95.5 µM and the IC50 was greater than 95.5 µM.

As to `CCCCNC(=O)NNC(=O)c1cc(/C=C/c2cccc([N+](=O)[O-])c2)ncn1`, the EC50 is greater than 178 µM and the IC50 was greater than 178 µM.

For `O=[N+]([O-])c1ccc(Cl)c(C=NC23CC4CC(CC(C4)C2)C3)c1`, the EC50 is greater than 200 µM and the IC50 worked out at 3.89 µM.

Turning to `CCOC(=O)c1cc(-c2ccc3ccccc3n2)c(O)c2cc3ccccc3nc12`, the EC50 is greater than 200 µM and the IC50 is greater than 200 µM.

Take `COc1cc([C@@H]2c3cc4c(c(O)c3C[C@H]3COC(=O)[C@@H]32)OCO4)cc(OC)c1O`: the EC50 was greater than 3.24 µM and the IC50 is 0.00174 µM.

For `Cc1c(/C=N/NC(=S)Nc2ccccc2)c(=O)n(-c2ccccc2)n1C`, the EC50 was greater than 200 µM and the IC50 was greater than 200 µM.

Take `COc1ccc2c(ccc(=O)n2C)c1`: the EC50 was greater than 200 µM and the 50% inhibitory concentration (IC50) was greater than 200 µM.

Regarding `CCC1(C)N=C(C(N)=O)c2ncn(N=C(C)C)c2N1` (configuration not stated), the EC50 was greater than 200 µM and the IC50 was greater than 200 µM.

Regarding `COc1ccc(C2=Cc3nc2c(-c2ccccc2)c2ccc([nH]2)c(-c2ccccc2)c2nc(c(-c4ccccc4)c4ccc([nH]4)c3-c3ccccc3)C=C2)cc1`, the EC50 is greater than 100 µM and the IC50 is greater than 100 µM.

Turning to `CC(=O)OCC1OC(n2c3c(c(-c4ccco4)c(C#N)c2=S)CCC3)C(OC(C)=O)C(OC(C)=O)C1OC(C)=O` (configuration not stated), the EC50 is greater than 200 µM and the IC50 turned out to be 9.77 µM.

With `CO[C@H](/C(C)=C/C=C/C(C)=C/c1coc(C)n1)[C@H](C)[C@H]1C[C@@H](O)[C@@]2(C)O[C@H]2/C=C/[C@@H](C)[C@@H]2C[C@@H](CC(=O)O2)C[C@H]2O[C@@H]2C(=O)O1`, the EC50 was greater than 0.219 µM and the IC50 was determined as 0.00017 µM.

Consider `Cc1cc(/C=C2\C=Cc3ccccc32)ccc1N(C)C`, for which the EC50 was greater than 38 µM and the IC50 is greater than 38 µM.

Take `CC(C)C(/C=C/c1ccc(Br)cc1)=N\NC(N)=O`: the EC50 is greater than 32.4 µM and the IC50 was greater than 32.4 µM.

Consider `CC1NC(=O)CC(c2ccccc2)N(N=O)C1c1ccccc1` (configuration not stated), for which the outcome was inactive.

In the case of `O=C(Nc1ccc(Cl)cc1)NS(=O)(=O)c1coc2cc(F)ccc2c1=O`, the EC50 is greater than 200 µM and the IC50 was 63.1 µM.

Regarding `COC(=O)C(Cc1ccc2c(c1)CCC2)Cc1ccc2c(c1)CCC2`, the EC50 was greater than 200 µM and the IC50 was 112 µM.

`O=C(COc1ccc(/C=C/C(=O)c2ccc(Cl)cc2)cc1)Nc1c(Cl)cccc1Cl`: the EC50 is greater than 40.7 µM and the IC50 is greater than 40.7 µM.

Regarding `N#CCCN(CCC#N)c1ccc(/C=C(\NC(=O)c2cc([N+](=O)[O-])ccc2Cl)C(=O)Nc2ccccc2)cc1`, the EC50 is greater than 13.2 µM and the IC50 was greater than 13.2 µM.

`O=C1NC(=O)C(COCc2ccccc2)C2=C1SCCC2` (configuration not stated): the EC50 was greater than 200 µM and the IC50 was greater than 200 µM.

For `CC1=C(C)C2(C#N)CC(=O)N=C2O1` (configuration not stated), the EC50 is greater than 200 µM and the IC50 is greater than 200 µM.

On to `CCCCN=C(N)N=C(N)N`, for which the EC50 was greater than 200 µM and the IC50 worked out at 93.3 µM.

Regarding `CO/N=C/c1cc(OC)c(OC)c(OC)c1`, the EC50 was greater than 813 µM and the IC50 was greater than 813 µM.

In the case of `COC(=O)C1Cc2ccc3c(c2C1=O)CCCC3` (configuration not stated), the EC50 was greater than 200 µM and the IC50 was found to be 186 µM.

With `COC(=O)c1cc(C(=O)OC)c(CC(=O)C(=O)Nc2ccc(Cl)c(C(F)(F)F)c2)nc1CC(=O)C(=O)Nc1ccc(Cl)c(C(F)(F)F)c1`, the EC50 was greater than 200 µM and the IC50 was determined as 148 µM.

`CCN(CC)c1ccc(N=Nc2ccc(-c3nc4ccc[n+](C)c4o3)cc2)cc1`: the EC50 was greater than 2.04 µM and the IC50 was greater than 2.04 µM.

Take `CCCCC/C=C/C/C=C/CCCCCCCC(=O)OCC(COC1OC(CS(=O)(=O)O)C(O)C(O)C1O)OC(=O)CCCCCCC/C=C/C/C=C/CCCCC` (configuration not stated): the EC50 was greater than 27.5 µM and the IC50 was greater than 27.5 µM.

Regarding `NC(=S)N/N=C1/C(=O)N(c2ccc(Cl)cc2Cl)C(=O)C(=O)C1c1nc2ccccc2s1` (configuration not stated), the EC50 is greater than 72.4 µM and the IC50 is greater than 72.4 µM.

`O=C1NC2(CCCCC2)N=C2C(Cl)CCCC12Cl` (configuration not stated): the EC50 is greater than 200 µM and the IC50 was greater than 200 µM.

Regarding `COCCCN1C(=O)C2c3[nH]c4ccccc4c3C3CCC(C(C)(C)C)CC3C2C1=O` (configuration not stated), the EC50 is greater than 200 µM and the IC50 came to 31.6 µM.

As to `Cn1cnc([N+](=O)[O-])c1Sc1ccccc1C(=O)O`, the EC50 is greater than 339 µM and the IC50 is greater than 339 µM.

Regarding `COc1cc2ccc1OCc1cccc(n1)COc1ccc(cc1OC)C=Nc1ccc(cc1)N=C2`, the EC50 was greater than 200 µM and the IC50 was greater than 200 µM.

As for `CN(c1ccc(Cl)cc1)S(=O)(=O)c1cccc([N+](=O)[O-])c1`, the EC50 was greater than 200 µM.

Take `C/C(=N\NC(=O)c1ccccc1O)c1c(O)cc(C)oc1=O`: the EC50 is greater than 85.1 µM and the IC50 came out at 70.8 µM.

For the molecule `CN(C)c1nc(N(C)C)nc(N(C)C)n1`, the EC50 is greater than 34.7 µM and the IC50 came out at 26.3 µM.

Take `CCOC(=O)COc1c(C)cc(SSc2cc(C)c(OCC(=O)OCC)c(C)c2)cc1C`: the EC50 was greater than 200 µM and the IC50 was 12 µM.

`N#CC(C(=O)C(=O)Nc1c(Cl)cccc1Cl)c1ccccc1` (configuration not stated): the result was inactive.

Take `Cc1cc(Cl)c(O)c(-c2cc(-c3ccccc3O)c(C#N)c(N)n2)c1`: the EC50 is greater than 200 µM and the IC50 was determined as 2.14 µM.

Turning to `NC(=O)N/N=C(\CCC(=O)N(Cc1ccccc1)Cc1ccccc1)CC(=O)c1ccc(F)cc1`, the EC50 was greater than 200 µM and the IC50 was greater than 200 µM.

`COc1ccc(C2COc3c(ccc(OC)c3OC)C2=O)cc1OC` (configuration not stated): the result was inactive.

On to `CCOC(=O)C1(C(=O)OCC)COS(=O)OC1`, for which the EC50 was greater than 186 µM and the IC50 turned out to be 97.7 µM.

Turning to `C[C@H](CCc1nc2ccccc2n1CCN(C)C)[C@H]1CC[C@H]2[C@@H]3CC[C@@H]4C[C@H](O)CC[C@]4(C)[C@H]3CC[C@]12C`, the EC50 was 1.55 µM and the IC50 came to 4.79 µM.

With `COc1ccc(C(=O)c2ccc(OC)c(S(=O)(=O)N(C)C)c2)cc1S(=O)(=O)N(C)C`, the EC50 is greater than 79.4 µM and the IC50 was greater than 79.4 µM.

With `COc1ccc(OC)c2c3c(ccc12)C(C)(c1ccccc1)OC3=O` (configuration not stated), the EC50 is greater than 191 µM and the IC50 worked out at 89.1 µM.

On to `Nc1nc2c(ncn2C2COC(CO)O2)c(=O)[nH]1` (configuration not stated), for which the EC50 is 30.2 µM and the IC50 was greater than 200 µM.

For the molecule `Cc1nc2ccccc2c(=O)n1-c1ccccc1I`, the EC50 was greater than 100 µM and the IC50 was greater than 100 µM.

With `NC(=N\N=C/c1ccc(Cl)c(Cl)c1)/C(N)=N\N=C/c1ccc(Cl)c(Cl)c1`, the result was inactive.

Turning to `O=C1c2cccc3cc([N+](=O)[O-])cc(c23)C(=O)N1Nc1ccc([N+](=O)[O-])cc1[N+](=O)[O-]`, the EC50 is greater than 200 µM and the IC50 worked out at 9.77 µM.

Turning to `CCC(=O)N1C(=O)C(CC)(CC)C(=O)N1C(=O)CC`, the EC50 is greater than 200 µM and the IC50 was greater than 200 µM.

On to `CCC(=O)OC1C(OC2C(C)C(OC3CC(C)(OC)C(O)C(C)O3)C(C)C(=O)OC(CC)C(C)(O)C(O)C(C)C(=O)C(C)CC2(C)O)OC(C)CC1N(C)C` (configuration not stated), for which the EC50 was greater than 200 µM and the IC50 amounted to 70.8 µM.

For the molecule `CCOC(=O)c1c(N)nnc(-c2ccccc2)c1-c1ccccc1`, the EC50 was greater than 200 µM and the IC50 was found to be 129 µM.
